In patent US8044067B2, “Isoquinolines as IGF-1R inhibitors” (Analytecon S.A., priority 2005, dated 2011):

How the values were obtained:
[1] = test system: insulin receptor substrate 1 (IRS-1); assay: Inhibition of the phosphorylation of insulin receptor substrate 1 (IRS-1) in MF-55 cells; type: cell-based; settings: MF-55 cells (malignant melanoma), 100 ng/ml for one hour, IGF-1 50 ng/ml for 5 minutes
Description: MF-55 cells (malignant melanoma) were starved for 20 hours, after which half of the cell mass was incubated with racemic compound 15 (100 ng/ml) for one hour. After activation with IGF-1 (50 ng/ml) for 5 minutes, the two cell samples were lyzed in a special buffer (Upstate Ltd., Dundee, UK) that disrupts the cell membrane as well as the nucleus envelope. After removal of cell debris by centrifugation, the supernatants were analyzed for phosphorylated IRS-1 by Upstate Ltd. The presence of racemic compound 15 lowered the amount of phosphorylated IRS-1 with 20% compared to control. By blocking the function of the IGF-1 receptor, the phosphorylation of the insulin receptor substrate 1 is inhibited.

[2] = test system: MAPK (Erk1/2); assay: Inhibition of the phosphorylation of MAPK in DU-145 cells (immunoblotting for phospho-MAPK); type: cell-based; settings: DU-145 cells (prostate cancer), incubated over night in serum free medium, IGF1 50 nM for 15 minutes
Description: DU-145 cells (prostate cancer) were incubated over night with compound 15 in serum free medium. After stimulation for 15 minutes with IGF1 (50 nM), the cells were lyzed and the lysates analysed by immunoblotting for phospho-MAPK.

[3] = biological target: T1, IGF-1 receptor (Homo sapiens, UniProt P08069); assay: Inhibition of the phosphorylation of the IGF-1 receptor in MCF-7 cells (immunoblotting for phospho-IGF-1R Y1135/1136); type: cell-based; settings: MCF-7 cells serum starved 20 hours, treated 3 hours, stimulated with 10 nM IGF-1 for 5 minutes
T1 construct: endogenous in cells; host or cells: MCF-7
Description: MCF-7 cells were serum starved for 20 hours, treated with compound 15 for 3 hours and finally stimulated with 10 nM IGF-1 for 5 minutes. The cells were lyzed and the lysates analysed by SDS-PAGE and immunoblotting for phospho-IGF-1R is (Y1135/1136).

T1 sequence (P08069 741-1367 limits assumed): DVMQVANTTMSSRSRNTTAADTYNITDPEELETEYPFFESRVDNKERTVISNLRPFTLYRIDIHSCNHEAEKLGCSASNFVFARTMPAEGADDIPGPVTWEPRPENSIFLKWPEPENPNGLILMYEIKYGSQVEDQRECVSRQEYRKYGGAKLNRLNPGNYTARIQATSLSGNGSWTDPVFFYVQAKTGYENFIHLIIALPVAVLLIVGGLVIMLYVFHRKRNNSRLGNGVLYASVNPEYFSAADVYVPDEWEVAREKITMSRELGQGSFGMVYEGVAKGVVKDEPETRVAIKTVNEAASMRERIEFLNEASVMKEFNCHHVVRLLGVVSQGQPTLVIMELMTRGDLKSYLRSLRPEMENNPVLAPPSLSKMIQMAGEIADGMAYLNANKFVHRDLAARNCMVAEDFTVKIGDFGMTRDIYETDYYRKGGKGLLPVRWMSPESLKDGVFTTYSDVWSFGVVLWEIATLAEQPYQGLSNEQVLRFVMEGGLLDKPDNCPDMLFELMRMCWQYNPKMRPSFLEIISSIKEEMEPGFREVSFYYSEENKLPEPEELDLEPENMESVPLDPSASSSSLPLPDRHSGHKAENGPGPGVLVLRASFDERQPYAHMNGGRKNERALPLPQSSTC
T1 sequence (P08069 31-736 limits assumed): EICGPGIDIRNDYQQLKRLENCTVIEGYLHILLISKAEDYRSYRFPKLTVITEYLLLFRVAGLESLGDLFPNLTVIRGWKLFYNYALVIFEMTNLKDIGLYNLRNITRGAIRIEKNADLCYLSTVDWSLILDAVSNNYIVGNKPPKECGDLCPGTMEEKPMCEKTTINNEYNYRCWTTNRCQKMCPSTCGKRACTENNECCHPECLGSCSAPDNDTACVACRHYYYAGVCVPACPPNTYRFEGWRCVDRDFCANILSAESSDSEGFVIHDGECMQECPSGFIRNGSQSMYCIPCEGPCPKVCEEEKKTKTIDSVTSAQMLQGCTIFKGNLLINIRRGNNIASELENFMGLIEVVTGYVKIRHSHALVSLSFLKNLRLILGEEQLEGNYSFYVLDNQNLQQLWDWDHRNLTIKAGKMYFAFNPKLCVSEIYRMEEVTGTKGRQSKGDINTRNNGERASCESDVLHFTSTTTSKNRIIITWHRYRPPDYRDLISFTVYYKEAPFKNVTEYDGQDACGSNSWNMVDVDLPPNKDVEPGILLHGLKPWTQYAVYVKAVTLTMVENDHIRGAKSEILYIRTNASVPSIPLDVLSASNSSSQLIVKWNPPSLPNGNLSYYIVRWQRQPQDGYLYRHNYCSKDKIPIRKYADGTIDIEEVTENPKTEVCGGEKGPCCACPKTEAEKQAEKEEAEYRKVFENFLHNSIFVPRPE

melting point	Compound	IC50 [2]	also measured
164 to 167 °C	COc1ccc2c(c1)CN(N)C(=O)C2c1cc(OC)c(OC)c(OC)c1.Cl (stereo not shown)		
	COc1ccc2c(c1O)CN(C)C(=O)C2c1cc(OC)c(OC)c(OC)c1 (racemic) [racemic compound 15, 2-methyl-4-(3,4,5-trimethoxyphenyl)-8-hydroxy-7-methoxy-1,4-dihydro-3(2H)-isoquinolinone]		lowering of the amount of phosphorylated IRS-1 compared to control [1]: 20%
	COc1ccc2c(c1O)CN(C)C(=O)C2c1cc(OC)c(OC)c(OC)c1 (single isomer, unassigned; (+)) [Compound 15, (+)-2-methyl-4-(3,4,5-trimethoxyphenyl)-8-hydroxy-7-methoxy-1,4-dihydro-3(2H)-isoquinolinone]	~300 nM	IC50 [3]: ~1000 nM
148 to 149 °C	COc1cc(C2C(=O)N(C)Cc3cc4c(cc32)OCCO4)cc(OC)c1OC (stereo not shown) [Compound 9, 2-methyl-4-(3,4,5-trimethoxyphenyl)-6,7-ethylenedioxy-1,4-dihydro-3(2H)-isoquinolinone]		
137 to 139 °C	COc1cc(OC)cc(C2C(=O)N(C)Cc3cc(OC)ccc32)c1 (stereo not shown) [Compound 13, 2-methyl-4-(3,5-dimethoxyphenyl)-7-methoxy-1,4-dihydro-3(2H)-isoquinolinone]		
	COc1cc([C@@H]2c3cc4c(cc3[C@H](O)[C@H]3COC(=O)[C@@H]23)OCO4)cc(OC)c1OC [Picropodophyllin, reference compound]	~5000 nM	
